This is an account of results in patent US20060205756A1, “Antitussives” (Kyowa Hakko Kogyo Co., Ltd., priority 2003, published 2006).

This experiment deals with citric acid-induced cough. As to the kind of experiment: Citric acid-induced cough model of guinea pig. It counts as in vivo. The following applies: for Numbers of the cough reflex by inhalation of citric acid: 1 hour before citric acid inhalation (0.5 mol/L, 2 min), coughs counted during 15 minutes, mean ± standard error; for Suppression of cough reflex as compared with the solvent group: Student's t-test versus solvent-administered group. An excerpt:
Antitussive activity is able to be evaluated by suppression of the cough induced by inhalation of a substance such as citric acid, capsaicin, etc. It is also possible to evaluate antitussive activity by suppression of the cough induced by a direct infusion of citric acid or capsaicin into airway [Nippon Yakurigaku Zasshi, volume 120, page 237 (2002)]. It is further possible to evaluate antitussive activity by suppression of the cough by a physical stimulation, for example, contact stimulation of throat or airway [Eur. J. Phazmacol., volume 329, page 93 (1997)].
Evaluation Using the Citric Acid-Induced Cough Model of Guinea Pig
Guinea pigs (Hartley strain; male; six weeks age; Nippon SLC) were used for the test. Induction of cough reflex by citric acid was conducted in a similar manner to the method by Hosoe, et al. [Yakuri to Rinsho, volume 5, page 2147 (1995)]. Thus, the guinea pig was fixed in a double chamber plethysmograph box (manufactured by Buxco Electronics) for guinea pigs and ventilation was conducted at about 1.6 L/minute. A physiological saline containing 0.5 mol/L of citric acid (manufactured by Wako Pure Chemical) was sprayed for 2 minutes from the upper part of the box of the head side using an ultrasonic nebulizer (NE-U12 manufactured by Omron) and discharged from the side drain. The cough reflex was measured by the generated cough sound and the respiration waveform. Numbers of coughs generated during 15 minutes from initiation of inhalation of citric acid were counted. Compound 1, Compound 2 and codeine phosphate (manufactured by Shionogi) each was suspended in 0.5 w/v % methyl cellulose 400 cP (manufactured by Wako Pure Chemical) and orally administered 1 hour before the initiation of the inhalation of citric acid. Incidentally, with regard to the Compound 1 and Compound 2, each 2, mg thereof was suspended in 1 mL of 0.5 w/v % methyl cellulose 400 cP while, with regard to codeine phosphate, 4 mg thereof was suspended in 1 mL of 0.5 w/v % methyl cellulose 400 cP and the suspension was administered at 5 mL per kg body weight. Numbers of the cough reflex by inhalation of citric acid in the group administered with the solvent were 7.9±1.8, while those in the group administered with 10 mg/kg of Compound 1 were 2.0±1.0. In this test, seven guinea pigs were used for the group administered with the solvent and for the group administered with Compound 1, respectively. Numbers of the cough reflex were expressed as the mean value ±standard error. […] Numbers of the cough reflex by inhalation of citric acid in the group administered with 10 mg/kg of Compound 2 were 4.3±1.0, while those in the group administered with the solvent were 10.3±1.8. In this test, twelve guinea pigs were used for the group administered with the solvent and for the group administered with Compound 2, respectively. Numbers of the cough reflex were expressed as the mean value±standard error. […] Numbers of the cough reflex in the group administered with 20 mg/kg of codeine phosphate which is a central antitussive were 1.8±0.5, while those in the group administered with the solvent were 6.8±1.4. In this test, six guinea pigs were used for the group administered with the solvent and for the group administered with codeine phosphate. Numbers of the cough reflex were expressed as the mean value±standard error.

As to `C[C@](O)(C(=O)Nc1cccc2c1C(=O)c1sccc1CS2(=O)=O)C(F)(F)F` [Compound 1], for the setting “10 mg/kg oral”, the “Numbers of the cough reflex by inhalation of citric acid” value (shortened to “Numbers of the cough reflex”) stood at 2.0±1.0 and the “Suppression of cough reflex as compared with the solvent group” value was “significant suppressive response”.

As to `CC(C)(O)C(=O)Nc1cccc2c1C(=O)c1sccc1CS2(=O)=O` [Compound 2], under “10 mg/kg oral”, the “Numbers of the cough reflex” value amounted to 4.3±1.0 and the “Suppression of cough reflex as compared with the solvent group” value is on record as “significant suppressive response”. With `COc1ccc2c3c1O[C@H]1[C@@H](O)C=C[C@H]4[C@@H](C2)N(C)CC[C@@]341` [codeine phosphate, reference compound], the “Numbers of the cough reflex” value (20 mg/kg oral) turned out to be 1.8±0.5.
